{"source": "patent US8859571B2", "about": "“Quinazoline compounds” (GlaxoSmithKline LLC, priority 2009, dated 2014)", "note": "Counter-ions that a name gives are not always drawn."}
{"target": "T1, Full length human TNNI3K (hTNNI3K) (Homo sapiens, UniProt Q59H18)", "T1 construct": "His-MBP-TEV-Full length human TNNI3K (hTNNI3K); His (N); MBP (N); TEV cleavage site (N); made in house; host or cells: baculovirus system (printed 'Baculokinase system')", "T1 sequence (Q59H18 1-835)": "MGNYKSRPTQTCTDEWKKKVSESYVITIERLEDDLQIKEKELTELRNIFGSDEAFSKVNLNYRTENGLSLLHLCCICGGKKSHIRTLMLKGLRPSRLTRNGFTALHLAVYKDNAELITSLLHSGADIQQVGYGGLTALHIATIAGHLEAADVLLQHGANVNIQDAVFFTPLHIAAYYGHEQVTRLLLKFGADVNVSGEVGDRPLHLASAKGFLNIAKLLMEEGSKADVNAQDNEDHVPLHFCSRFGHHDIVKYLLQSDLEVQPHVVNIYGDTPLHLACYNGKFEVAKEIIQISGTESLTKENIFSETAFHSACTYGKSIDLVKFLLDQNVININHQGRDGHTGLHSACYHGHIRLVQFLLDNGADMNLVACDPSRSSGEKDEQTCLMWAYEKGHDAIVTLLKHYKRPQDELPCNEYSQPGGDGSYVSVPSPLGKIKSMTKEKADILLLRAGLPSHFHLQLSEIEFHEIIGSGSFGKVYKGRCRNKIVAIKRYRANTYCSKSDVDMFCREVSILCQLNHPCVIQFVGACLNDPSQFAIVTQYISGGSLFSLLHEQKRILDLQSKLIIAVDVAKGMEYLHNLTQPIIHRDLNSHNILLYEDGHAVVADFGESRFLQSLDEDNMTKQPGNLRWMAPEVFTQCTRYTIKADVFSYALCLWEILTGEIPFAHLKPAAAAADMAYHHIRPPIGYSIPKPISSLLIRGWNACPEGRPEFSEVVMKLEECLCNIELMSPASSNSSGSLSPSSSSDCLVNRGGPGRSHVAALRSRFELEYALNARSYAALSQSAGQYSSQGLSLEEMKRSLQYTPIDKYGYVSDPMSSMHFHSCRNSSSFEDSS", "assay": "Fluorescent polarization assay of compound inhibition on hTNNI3K ATP binding (Biological Assay Method I)", "conditions": "displacement of fluorescent ligand from hTNNI3K ATP binding pocket; mean of a minimum of 2 experiments; read-out: pXC50 (the source's name) (converted)", "from_the_text": "Materials: His-MBP-TEV-Full length human TNNI3K (hTNNI3K) was expressed in Baculokinase system and purified from amylase affinity column followed by Superdex200. The fluorescent ligand 5-({[2-({[3-({4-[(5-hydroxy-2-methylphenyl)amino]-2-pyrimidinyl}amino)phenyl]carbonyl}amino)ethyl]amino}carbonyl)-2-(6-hydroxy-3-oxo-3H-xanthen-9-yl)benzoic acid was used. The preparation of this fluorescent ligand is disclosed in U.S. Provisional Patent Application No. 61/237,815 filed Aug. 28, 2009, the disclosure of which is incorporated by reference herein. The other buffer components, including MgCl2 (Catalog Number M1028), Bis-Tris (Catalog Number B7535), DTT (Catalog Number D9779) and Chaps (Catalog Number C3023) were purchased from Sigma-Aldrich.\nBiological Assay Method I:\nA fluorescent polarization assay was used to determine does response of compound inhibition on hTNNI3K ATP binding.\nSolution 1: Ten (10) mL of a 5 nM 5-({[2-({[3-({4-[(5-hydroxy-2-methylphenyl)amino]-2-pyrimidinyl}amino)phenyl]carbonyl}amino)ethyl]amino}carbonyl)-2-(6-hydroxy-3-oxo-3H-xanthen-9-yl)benzoic acid solution (Solution 1) was prepared by mixing 5 μL of 1M DTT and 80 μL of 10% (w/v) Chaps and 5 μL of a 10 μM 5-({[2-({[3-({4-[(5-hydroxy-2-methylphenyl)amino]-2-pyrimidinyl}amino)phenyl]carbonyl}amino) ethyl]amino}carbonyl)-2-(6-hydroxy-3-oxo-3H-xanthen-9-yl)benzoic acid stock solution into 9910 μL buffer (20 mM Tris, 15 mM MgCl2, pH 7.5). (Stock solution: 10 μM solution of 5-({[2-({[3-({4-[(5-hydroxy-2-methylphenyl)amino]-2-pyrimidinyl}amino)phenyl]carbonyl}amino)ethyl]amino}carbonyl)-2-(6-hydroxy-3-oxo-3H-xanthen-9-yl)benzoic acid in 100% DMSO)\nSolution 2 was formed by mixing 53.8 μL of 2.6 μM hTNNI3K with a 6946.2 μL aliquot of Solution 1 (the above 5-({[2-({[3-({4-[(5-hydroxy-2-methylphenyl)amino]-2-pyrimidinyl}amino)phenyl]carbonyl}amino)ethyl]amino}carbonyl)-2-(6-hydroxy-3-oxo-3H-xanthen-9-yl)benzoic acid solution) to make up a 7 mL of mixture of hTNNI3K and 5-({[2-({[3-({4-[(5-hydroxy-2-methylphenyl)amino]-2-pyrimidinyl}amino)phenyl]carbonyl}amino)ethyl]amino}carbonyl)-2-(6-hydroxy-3-oxo-3H-xanthen-9-yl)benzoic acid (Solution 2).\nFifty (50) nL of inhibitors in DMSO (or DMSO controls) were stamped into a 384-well low volume Greiner black plate, followed by addition of 5 μL of Solution 1 to column 18 and 5 μL Solution 2 to columns 1-17 and 19-24 of the plate. The plate was then spun at 500 rpm for 30 seconds and incubated at room temperature for 60 minutes. After that, the fluorescent polarization was measured on Analyst (ex/em: 485/530 nm, Dichroic: 505). For dose response experiments, normalized data were fit by ABASE/XC50 and pXC50=(log((b−y)/(y−a)))/d−log(x), where x is the compound concentration and y is the % activity at specified compound concentration, a is the minimum % activity, b is the maximum % activity, and d is the Hill slope.\nThe pXC50s are averaged to determine a mean value, for a minimum of 2 experiments.", "units": {"IC50": "nM"}}
{"smiles": "CNS(=O)(=O)c1ccc(OCC(F)(F)F)c(Nc2ncnc3cc(OC)cc(OC(C)C)c23)c1", "note": "[Example 47, N-methyl-3-{[5-[(1-methylethyl)oxy]-7-(methyloxy)-4-quinazolinyl]amino}-4-[(2,2,2-trifluoroethyl)oxy] benzenesulfonamide]", "IC50": "10 to 100"}
{"smiles": "CNS(=O)(=O)c1ccc(N2CCOCC2)c(Nc2ncnc3cc(OC)cc(OC)c23)c1", "note": "[Example 40, 3-{[5,7-bis(methyloxy)-4-quinazolinyl]amino}-N-methyl-4-(4-morpholinyl) benzenesulfonamide hydrochloride]", "IC50": "10 to 100"}
{"smiles": "CCOc1cc(OC)cc2ncnc(Nc3cc(S(=O)(=O)NC)ccc3OC(C)C(F)(F)F)c12", "note": "(centres unmarked) [Example 66, 3-{[5-(ethyloxy)-7-(methyloxy)-4-quinazolinyl]amino}-N-methyl-4-[(2,2,2-trifluoro-1-methylethyl)oxy] benzenesulfonamide]", "IC50": "1 to 10"}
{"smiles": "CNS(=O)(=O)c1ccc(N(C)C)c(Nc2ncnc3cc(OCCCCl)ccc23)c1", "note": "[Example 16, 3-({7-[(3-chloropropyl)oxy]-4-quinazolinyl}amino)-4-(dimethylamino)-N-methylbenzenesulfonamide]", "IC50": "10 to 100"}
{"smiles": "CNS(=O)(=O)c1ccc(OCC(F)(F)F)c(Nc2ncnc3cc(OC)c(I)cc23)c1", "note": "[Example 70, 3-{[6-iodo-7-(methyloxy)-4-quinazolinyl]amino}-N-methyl-4-[(2,2,2-trifluoroethyl)oxy] benzenesulfonamide]", "IC50": "10 to 100"}
{"smiles": "CNS(=O)(=O)c1ccc(N2CCC(F)(F)CC2)c(Nc2ncnc3cc(OC)c(OC)cc23)c1", "note": "[Example 14, 3-{[6,7-bis(methyloxy)-4-quinazolinyl]amino}-4-(4,4-difluoro-1-piperidinyl)-N-methylbenzenesulfonamide trifluoroacetate]", "IC50": "10 to 100"}
{"smiles": "CNS(=O)(=O)c1ccc(Cl)c(Nc2ncnc3cc(OC)cc(OC)c23)c1", "note": "[Example 39, 3-{[5,7-bis(methyloxy)-4-quinazolinyl]amino}-4-chloro-N-methylbenzenesulfonamide hydrochloride]", "IC50": "10 to 100"}
{"smiles": "CNS(=O)(=O)c1ccc(F)c(Nc2ncnc3cc(OC)cc(OC)c23)c1", "note": "[Example 38, 3-{[5,7-bis(methyloxy)-4-quinazolinyl]amino}-4-fluoro-N-methylbenzenesulfonamide hydrochloride]", "IC50": "10 to 100"}
{"smiles": "CNS(=O)(=O)c1ccc(Cl)c(Nc2ncnc3cc(OC)c(OC)c(OC)c23)c1", "note": "[Example 59, 4-chloro-N-methyl-3-{[5,6,7-tris(methyloxy)-4-quinazolinyl]amino}benzene sulfonamide trifluoroacetate]", "IC50": "10 to 100"}
{"smiles": "CNS(=O)(=O)c1ccc(SC)c(Nc2ncnc3cc(OC)cc(OC)c23)c1", "note": "[Example 53, 3-{[5,7-bis(methyloxy)-4-quinazolinyl]amino}-N-methyl-4-(methylthio) benzenesulfonamide hydrochloride]", "IC50": "10 to 100"}
{"smiles": "CNS(=O)(=O)c1ccc(OCC(F)(F)F)c(Nc2ncnc3cc(OC)cc(OCCOC)c23)c1", "note": "[Example 60, N-methyl-3-[(7-(methyIoxy)-5-{[2-(methyloxy)ethyl]oxy}-4-quinazolinyl)amino]-4-[(2,2,2-trifluoroethyl)oxy]benzene-sulfonamide hydrochloride]", "IC50": "10 to 100"}
{"smiles": "CNS(=O)(=O)c1ccc(OCC(F)(F)F)c(Nc2ncnc3cc(OCCCN4CCOCC4)ccc23)c1", "note": "[Example 74, N-methyl-3-[(7-{[3-(4-morpholinyl)propyl]oxy}-4-quinazolinyl)amino]-4-[(2,2,2-trifluoroethyl)oxy] benzenesulfonamide trifluoroacetate]", "IC50": "10 to 100"}
{"smiles": "CNS(=O)(=O)c1ccc(N2CCC[C@@H]2C(F)(F)F)c(Nc2ncnc3ccc(Cl)cc23)c1", "note": "[Example 22, 3-[(6-chloro-4-quinazolinyl)amino]-N-methyl-4-[(2R)-2-(trifluoromethyl)-1-pyrrolidinyl] benzenesulfonamide trifluoroacetate]", "IC50": "10 to 100"}
{"smiles": "CNS(=O)(=O)c1ccc(N(C)C)c(Nc2ncnc3cc(N)ccc23)c1", "note": "[Example 85, 3-((7-aminoquinazolin-4-yl)amino)-4-(dimethylamino)-N-methylbenzenesulfonamide]", "IC50": "10 to 100"}
